{"source": "patent US10485550B2", "about": "“Ophthalmic drug delivery device and methods of use” (priority 2012, dated 2019)", "tested_on": "mouse eye", "assay": "Intraocular pressure (TonoLab) in mice after injection of ethacrynic acid, with or without healon, into the episcleral vein", "assay_type": "in vivo", "description": "Basline intraocular pressures were measured in both eyes of the mouse using a TonoLab device. A piece of a latex glove was placed over the equator of the mouse eye. Initially, a glass microcannula was used to inject either (a) a solution of ethacrynic acid alone or (b) saline into the episcleral vein at the limbus of the right eye of each mouse. The solution or saline was injected until blanching was observed 360 degrees around the limbus. The piece of latex was then removed from the eye. Intraocular pressures were then measured daily and then weekly in both eyes of all mice. The ethacrynic acid injection alone produced its most profound effect at day 2; however, some effect was maintained until day 7. The results of the above protocol are provided in Table 1, and also shown in FIG. 4, where ethacrynic acid is noted as ECA (squares), saline control is BSS (triangles), and non-treated control is control (diamonds).\nNext, ethacrynic acid was combined with healon in a 3:1 ratio. Again, a glass microcannula was used to inject either the ethacrynic acid/healon solution or BSS solution as the control. The ethacrynic acid/healon solution produced its most profound effect at 2 weeks but lasted 3 weeks. The results are provided in Table 2 and also shown in FIG. 3, where ethacrynic acid/healon is designated with squares, BSS as diamonds, and non injected controls as triangles.", "key": {"[1]": {"conditions": "ethacrynic acid injection alone, episcleral vein, mouse"}}, "note": "Where “and” joins values, the source holds several entries; their conditions need not be identical. Identical values can stand only once."}
{"smiles": "C=C(CC)C(=O)c1ccc(OCC(=O)O)c(Cl)c1Cl", "note": "[ECA, [2,3-dichloro-4-(2-methylene-1-oxobutyl)phenoxy]acetic acid]", "values": [{"measurement": "Reduction of intraocular pressure (IOP) versus control", "setting": "FIG. 5", "result": "reduces intraocular pressure (IOP) greater than control"}, {"measurement": "Animal status (mouse ECA6)", "setting": "Table 1, ethacrynic acid alone, 1 wk", "result": "dead"}, {"measurement": "Intraocular pressure, OD, individual mouse", "setting": "Table 2, ethacrynic acid combined with healon 3:1, episcleral vein injection, 1 day", "result": "14 and 13 (2×) and 9 (2×)"}, {"measurement": "Avg. intraocular pressure, OD", "setting": "Table 2, ethacrynic acid combined with healon 3:1, episcleral vein injection, 1 day, group avg (0 hr base avg 16.6)", "result": 12.25}, {"measurement": "Intraocular pressure, OD, individual mouse", "setting": "Table 2, ethacrynic acid combined with healon 3:1, episcleral vein injection, 2 day", "result": "12 (2×) and 19 (2×) and 22 and 16"}, {"measurement": "Avg. intraocular pressure, OD", "setting": "Table 2, ethacrynic acid combined with healon 3:1, episcleral vein injection, 2 day, group avg", "result": 16.8}, {"measurement": "Intraocular pressure, OD, individual mouse", "setting": "Table 2, ethacrynic acid combined with healon 3:1, episcleral vein injection, 5 day", "result": "13 and 8 and 17 and 14 and 16 and 10"}, {"measurement": "Avg. intraocular pressure, OD", "setting": "Table 2, ethacrynic acid combined with healon 3:1, episcleral vein injection, 5 day, group avg", "result": 13.6}, {"measurement": "Intraocular pressure, OD, individual mouse", "setting": "Table 2, ethacrynic acid combined with healon 3:1, episcleral vein injection, 7 day", "result": "10 (3×) and 9 and 7 and 20"}, {"measurement": "Avg. intraocular pressure, OD", "setting": "Table 2, ethacrynic acid combined with healon 3:1, episcleral vein injection, 7 day, group avg", "result": 11.2}, {"measurement": "Intraocular pressure, OD, individual mouse", "setting": "Table 2, ethacrynic acid combined with healon 3:1, episcleral vein injection, 14 day", "result": "16 and 12 and 14 and 18 (2×)"}, {"measurement": "Avg. intraocular pressure, OD", "setting": "Table 2, ethacrynic acid combined with healon 3:1, episcleral vein injection, 14 day, group avg", "result": 15}, {"measurement": "Intraocular pressure, OD, individual mouse", "setting": "Table 2, ethacrynic acid combined with healon 3:1, episcleral vein injection, 21 day", "result": "16 and 7 and 14 (2×) and 8"}, {"measurement": "Avg. intraocular pressure, OD", "setting": "Table 2, ethacrynic acid combined with healon 3:1, episcleral vein injection, 21 day, group avg", "result": 12.75}, {"measurement": "Intraocular pressure, OD, individual mouse", "setting": "Table 2, ethacrynic acid combined with healon 3:1, episcleral vein injection, 35 day", "result": "11 and 8 and 15 and 17 and 14"}, {"measurement": "Avg. intraocular pressure, OD", "setting": "Table 2, ethacrynic acid combined with healon 3:1, episcleral vein injection, 35 day, group avg", "result": 12.75}, {"measurement": "Intraocular pressure, OD, individual mouse", "setting": "Table 2, ethacrynic acid combined with healon 3:1, episcleral vein injection, 42 day", "result": "15 and 12 (2×) and 8 and 11"}, {"measurement": "Avg. intraocular pressure, OD", "setting": "Table 2, ethacrynic acid combined with healon 3:1, episcleral vein injection, 42 day, group avg", "result": 14.11}, {"measurement": "Intraocular pressure, OD, individual mouse", "setting": "Table 2, ethacrynic acid combined with healon 3:1, episcleral vein injection, 56 day", "result": "13 and 10 (2×) and 7 and 17"}, {"measurement": "Avg. intraocular pressure, OD", "setting": "Table 2, ethacrynic acid combined with healon 3:1, episcleral vein injection, 56 day, group avg", "result": 13.47}, {"measurement": "Intraocular pressure, OD, individual mouse", "setting": "Table 2, ethacrynic acid combined with healon 3:1, episcleral vein injection, 64 day", "result": "16 and 12 and 9 and 15 and 14"}, {"measurement": "Avg. intraocular pressure, OD", "setting": "Table 2, ethacrynic acid combined with healon 3:1, episcleral vein injection, 64 day, group avg", "result": 13.83}, {"measurement": "Intraocular pressure, OD, individual mouse", "setting": "Table 2, ethacrynic acid combined with healon 3:1, episcleral vein injection, 74 day (first 74 day column pair)", "result": "19 and 14 and 17 and 18"}, {"measurement": "Avg. intraocular pressure, OD", "setting": "Table 2, ethacrynic acid combined with healon 3:1, episcleral vein injection, 74 day (first 74 day column pair), group avg", "result": 17}, {"measurement": "Intraocular pressure, OD, individual mouse", "setting": "Table 2, ethacrynic acid combined with healon 3:1, episcleral vein injection, 74 day (second 74 day column pair)", "result": "17 and 11 and 16 (2×)"}, {"measurement": "Avg. intraocular pressure, OD", "setting": "Table 2, ethacrynic acid combined with healon 3:1, episcleral vein injection, 74 day (second 74 day column pair), group avg", "result": 19}, {"measurement": "Animal status (mouse ECA6)", "setting": "Table 2, 14 day", "result": "dead"}, {"measurement": "Intraocular pressure, OD, individual mouse", "setting": "ethacrynic acid alone, episcleral vein injection right eye, 1 wk", "result": "16 and 12 and 14 and 18"}, {"measurement": "Avg. intraocular pressure, OD", "setting": "ethacrynic acid alone, episcleral vein injection right eye, 1 wk, group avg (0 hr base avg 16.6)", "result": 15}, {"measurement": "Intraocular pressure, OD, individual mouse", "setting": "ethacrynic acid alone, episcleral vein injection right eye, 1 day", "result": "14 and 13 (2×) and 9"}, {"measurement": "Avg. intraocular pressure, OD", "setting": "ethacrynic acid alone, episcleral vein injection right eye, 1 day, group avg (0 hr base avg 16.6)", "result": 12.25}, {"measurement": "Intraocular pressure, OD, individual mouse", "setting": "ethacrynic acid alone, episcleral vein injection right eye, 2 day", "result": "12 (2×) and 19 (2×) and 22"}, {"measurement": "Avg. intraocular pressure, OD", "setting": "ethacrynic acid alone, episcleral vein injection right eye, 2 day, group avg (0 hr base avg 16.6)", "result": 16.8}, {"measurement": "Intraocular pressure, OD, individual mouse", "setting": "ethacrynic acid alone, episcleral vein injection right eye, 5 day", "result": "13 and 8 and 17 and 14 and 16"}, {"measurement": "Avg. intraocular pressure, OD", "setting": "ethacrynic acid alone, episcleral vein injection right eye, 5 day, group avg (0 hr base avg 16.6)", "result": 13.6}, {"measurement": "Intraocular pressure, OD, individual mouse", "setting": "ethacrynic acid alone, episcleral vein injection right eye, 6 day", "result": "10 (2×) and 9 and 7 and 20"}, {"measurement": "Avg. intraocular pressure, OD", "setting": "ethacrynic acid alone, episcleral vein injection right eye, 6 day, group avg (0 hr base avg 16.6)", "result": 11.2}, {"measurement": "Effect on intraocular pressure maintained until", "setting": "[1]", "result": 7, "unit": "days"}, {"measurement": "Time of most profound effect on intraocular pressure", "setting": "[1]", "result": 2, "unit": "days"}]}
